Experimental data published in paper PMC2694132 (Cancer research, 2009).

Key:
[1] = target: T1, UGT1A8*2 (UGT1A8p.Ala173Gly) (Homo sapiens, UniProt Q9HAW9, A173G); experiment: SAHA glucuronidation, UGT1A8*2 variant cell homogenate; type: in vitro ADME
T1 sequence (Q9HAW9 26-530 A173G): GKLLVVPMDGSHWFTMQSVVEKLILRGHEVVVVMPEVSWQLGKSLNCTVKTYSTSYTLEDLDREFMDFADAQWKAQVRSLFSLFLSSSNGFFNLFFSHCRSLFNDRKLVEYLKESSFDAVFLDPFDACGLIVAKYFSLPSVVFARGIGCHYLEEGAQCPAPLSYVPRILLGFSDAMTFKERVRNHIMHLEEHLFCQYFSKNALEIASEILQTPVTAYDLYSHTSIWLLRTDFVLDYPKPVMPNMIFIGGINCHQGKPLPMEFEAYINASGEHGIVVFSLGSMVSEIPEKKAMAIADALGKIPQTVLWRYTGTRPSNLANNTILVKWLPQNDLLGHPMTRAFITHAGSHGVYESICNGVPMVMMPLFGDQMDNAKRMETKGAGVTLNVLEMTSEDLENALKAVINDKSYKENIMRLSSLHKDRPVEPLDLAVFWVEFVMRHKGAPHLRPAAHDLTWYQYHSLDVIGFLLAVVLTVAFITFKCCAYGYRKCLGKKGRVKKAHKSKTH

UGT1A1 = target: T2, UGT1A1 (Homo sapiens, UniProt P22309); experiment: SAHA glucuronidation screen, UGT1A1-overexpressing cell homogenate; type: in vitro ADME
T2 sequence (P22309 26-533): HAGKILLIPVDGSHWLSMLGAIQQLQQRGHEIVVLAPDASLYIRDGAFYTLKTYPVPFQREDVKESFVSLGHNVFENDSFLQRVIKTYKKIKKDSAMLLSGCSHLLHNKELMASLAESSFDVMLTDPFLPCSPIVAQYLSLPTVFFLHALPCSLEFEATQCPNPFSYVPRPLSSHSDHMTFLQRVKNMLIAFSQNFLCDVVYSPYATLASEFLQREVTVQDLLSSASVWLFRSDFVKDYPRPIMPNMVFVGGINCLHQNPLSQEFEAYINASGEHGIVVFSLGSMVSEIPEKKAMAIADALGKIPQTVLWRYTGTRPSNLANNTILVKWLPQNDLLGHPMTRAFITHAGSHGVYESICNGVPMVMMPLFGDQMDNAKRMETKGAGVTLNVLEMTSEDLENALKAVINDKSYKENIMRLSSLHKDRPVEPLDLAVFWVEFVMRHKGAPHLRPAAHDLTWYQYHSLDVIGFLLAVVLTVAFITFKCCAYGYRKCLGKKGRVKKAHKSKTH

UGT2B7 = target: T3, UGT2B7 (Homo sapiens, UniProt P16662); experiment: SAHA glucuronidation screen, UGT2B7-overexpressing cell homogenate; type: in vitro ADME
T3 sequence (P16662 24-529): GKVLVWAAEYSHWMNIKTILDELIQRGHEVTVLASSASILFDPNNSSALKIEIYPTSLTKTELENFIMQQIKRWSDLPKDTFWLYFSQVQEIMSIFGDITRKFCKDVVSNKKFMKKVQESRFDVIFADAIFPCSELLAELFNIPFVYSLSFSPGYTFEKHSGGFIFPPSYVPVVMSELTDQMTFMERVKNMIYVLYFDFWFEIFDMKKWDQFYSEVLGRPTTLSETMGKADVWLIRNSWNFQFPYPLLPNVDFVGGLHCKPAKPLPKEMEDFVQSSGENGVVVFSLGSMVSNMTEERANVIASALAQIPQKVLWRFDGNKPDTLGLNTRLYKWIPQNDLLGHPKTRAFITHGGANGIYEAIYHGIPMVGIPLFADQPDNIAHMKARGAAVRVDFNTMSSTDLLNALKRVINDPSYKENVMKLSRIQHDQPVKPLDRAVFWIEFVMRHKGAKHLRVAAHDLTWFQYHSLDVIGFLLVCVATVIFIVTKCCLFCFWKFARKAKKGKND

UGT1A5 = target: T4, UGT1A5 (Homo sapiens, UniProt P35504); experiment: SAHA glucuronidation screen, UGT1A5-overexpressing cell homogenate; type: in vitro ADME; settings: 400 μg UGT-overexpressing cell homogenate, 1-h incubation
T4 sequence (P35504 29-534): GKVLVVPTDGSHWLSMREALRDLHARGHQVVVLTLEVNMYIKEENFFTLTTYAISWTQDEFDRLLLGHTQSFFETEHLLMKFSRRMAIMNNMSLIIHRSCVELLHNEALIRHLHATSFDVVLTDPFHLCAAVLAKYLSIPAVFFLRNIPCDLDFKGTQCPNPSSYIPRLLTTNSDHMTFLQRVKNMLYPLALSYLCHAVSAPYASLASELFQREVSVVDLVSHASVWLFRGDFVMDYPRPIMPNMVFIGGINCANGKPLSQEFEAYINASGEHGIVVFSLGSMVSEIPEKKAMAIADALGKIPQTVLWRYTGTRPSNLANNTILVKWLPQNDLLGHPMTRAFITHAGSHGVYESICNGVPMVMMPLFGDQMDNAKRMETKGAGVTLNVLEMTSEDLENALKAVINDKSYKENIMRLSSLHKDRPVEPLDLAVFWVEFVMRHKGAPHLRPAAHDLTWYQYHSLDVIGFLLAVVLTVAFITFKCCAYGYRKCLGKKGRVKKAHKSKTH

UGT2B4 = target: T5, UGT2B4 (Homo sapiens, UniProt P06133); experiment: SAHA glucuronidation screen, UGT2B4-overexpressing cell homogenate; type: in vitro ADME; settings: 400 μg UGT-overexpressing cell homogenate, 1-h incubation
T5 sequence (P06133 24-528): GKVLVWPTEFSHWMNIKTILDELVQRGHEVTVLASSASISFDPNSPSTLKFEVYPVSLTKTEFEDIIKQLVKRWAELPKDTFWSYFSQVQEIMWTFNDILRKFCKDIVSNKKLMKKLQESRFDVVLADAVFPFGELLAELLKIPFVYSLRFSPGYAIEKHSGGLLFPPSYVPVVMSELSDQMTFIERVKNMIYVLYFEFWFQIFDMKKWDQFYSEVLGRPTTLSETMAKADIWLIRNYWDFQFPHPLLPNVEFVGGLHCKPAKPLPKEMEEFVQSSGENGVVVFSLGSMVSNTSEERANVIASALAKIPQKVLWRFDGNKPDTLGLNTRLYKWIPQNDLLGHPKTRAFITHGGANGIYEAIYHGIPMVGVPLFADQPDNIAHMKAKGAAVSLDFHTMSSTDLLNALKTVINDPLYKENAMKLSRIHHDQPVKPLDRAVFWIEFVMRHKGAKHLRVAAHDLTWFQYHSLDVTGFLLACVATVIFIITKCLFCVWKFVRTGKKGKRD

O=C(CCCCCCC(=O)Nc1ccccc1)NO [SAHA, Suberoylanilide hydroxamic acid]
decrease in glucuronidation activity against SAHA compared with wild-type UGT1A8 ([1]; UGT1A8p.Ala173Gly variant, P < 0.005): 3 fold
Km at 1 h ([1]; human, UGT1A8*2 variant-overexpressing cell homogenate, pH 7.5): 3 ± 0.7 mM
Km at 1 h (UGT1A1; human, UGT1A1-overexpressing cell homogenate, pH 7.5): > 8 mM
glucuronidation against SAHA (UGT1A1; in vitro, UGT-overexpressing cell homogenate): detectable levels of glucuronidation
glucuronidation against SAHA (UGT2B7; 400 μg UGT-overexpressing cell homogenate, 1-h incubation): detectable levels of glucuronidation
Km at 1 h (UGT2B7; human, UGT2B7-overexpressing cell homogenate, pH 7.5): > 8 mM
glucuronidation activity against SAHA (screen) (UGT1A5): No detectable glucuronidation activity
glucuronidation activity against SAHA (screen) (UGT2B4): No detectable glucuronidation activity
SAHA-glucuronide formation, HLM with one versus two intact UGT2B17 alleles (200 μmol/L SAHA): No difference
decrease in SAHA-glucuronide formation, UGT2B17 (*2/*2) HLM versus HLM with intact UGT2B17 (200 μmol/L SAHA, 20 μg HLM protein, 100 subjects): 45%
increase in KM, UGT2B17 (*2/*2) HLM versus UGT2B17 (*1/*1) HLM (13 HLM per genotype, 65 to 8,000 μmol/L SAHA): 75%
change in Vmax between UGT2B17 genotype subgroups (HLM (*1/*1) versus (*2/*2)): No change
share of hepatic SAHA glucuronidation from UGT2B17 (from UGT2B17-deleted versus wild-type HLM): ~ 45%
